The text below walks through data of paper PMC8162404, “Proteomimetic surface fragments distinguish targets by function” (Chemical Science, 2020).

SMILES strings stand for the structures.

Test [1] has as its target T1, CaM (Bos taurus, UniProt P62157).
T1 construct: made in house; host or cells: E. coli BL21 (DE3)
As to the kind of experiment: Pull-down assay with immobilized protein and LSM libraries. Format: binding, bovine. To be noted: H14 library; 1:2 stoichiometry assumed; read-out: Surface mapping KD (apparent). In short, it runs like this:
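CaM buffer was 20 mM HEPES pH 7.4, 150 mM NaCl, 5 mM CaCl2. LSM sublibrary members ([…]) incubated 30 min, RT, with equimolar His-tagged protein on Co-NTA resin. HPLC-MS measured unbound probes; bound fraction relative to resin-only background gave dissociation constants.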

Test [2] deals with T2, Gal-1 (Homo sapiens, UniProt P09382).
T2 construct: made in house; host or cells: E. coli BL21(DE3)
The test is described as above. Format: binding. To be noted: H14 library; 1:1 binding assumed; read-out: Surface mapping KD (apparent). In short, it runs like this:
(§1)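 Buffers were HEPES pH 7.4 with 150 mM NaCl, plus 1 mM TCEP and 1 mM CaCl2 (50 mM HEPES) for S100A4 and S100B, 1 mM TCEP for Gal-1, and no additive for RecQ-WH. Immobilized protein at 64 µM was equilibrated 30 min with the LSM sublibrary, and unbound probes were measured by LC-MS.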

A further test has as its target T3, S100A4 (Homo sapiens, UniProt P26447).
T3 construct: made in house; host or cells: Escherichia coli BL21(DE3)
Described as above. Format: binding. The following applies: H14 library; 1:1 binding assumed; read-out: Surface mapping KD (apparent). In short, it runs like this:
as §1

The target of test [3] is T4, S100B (Homo sapiens, UniProt P04271).
T4 construct: made in house; host or cells: Escherichia coli BL21(DE3)
T4 sequence (P04271 1-92): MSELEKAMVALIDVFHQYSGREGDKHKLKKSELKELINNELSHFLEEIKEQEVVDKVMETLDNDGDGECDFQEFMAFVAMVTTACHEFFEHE
The description is as above. The following applies: H14 library; 1:1 binding assumed; read-out: Surface mapping KD (apparent). Format: binding. In outline: as §1

Test [4] addresses T4, S100B. The test can be described thus: Competition pull-down with native ligand RSK1 (689–735). Format: binding. To be noted: H14 library; competitor peptide 200 µM; read-out: Surface mapping KD (apparent), competition.
In test [5] the target is T2, Gal-1. The test can be described thus: Competition pull-down with lactose. Format: binding. The following applies: H14 library; lactose 10 mM; read-out: Surface mapping KD (apparent), competition. In outline: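 His6-tagged proteins immobilized on Co-NTA resin at 64 µM final with 64-member LSM foldamer sublibraries (1 M each, as printed) in pH 7.4 HEPES/NaCl buffers (Ca2+/TCEP per target), 30 min RT; competitor peptides 200 µM final, lactose 10 mM for Gal-1. Bound fractions from LC-MS loss vs protein-free resin; KD assuming 1:1 binding.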

Test [6] has as its target T1, CaM. As to the kind of experiment: Competition pull-down with native ligand TRPV1-Ct15. Format: binding, bovine. The following applies: H14 library; competitor peptide 200 µM; read-out: Surface mapping KD (apparent), competition.

T3 sequence (P26447 whole entry): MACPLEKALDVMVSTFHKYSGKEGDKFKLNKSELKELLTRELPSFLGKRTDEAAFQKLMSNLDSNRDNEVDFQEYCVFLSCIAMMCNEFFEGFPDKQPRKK
T2 sequence (P09382 whole entry): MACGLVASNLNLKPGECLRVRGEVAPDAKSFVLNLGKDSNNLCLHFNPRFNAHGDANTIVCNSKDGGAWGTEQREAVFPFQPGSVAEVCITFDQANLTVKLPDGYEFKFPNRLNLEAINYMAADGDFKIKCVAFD

Take `CSCC[C@@H](CC(=O)N[C@H]1CCCC[C@@H]1C(N)=O)NC(=O)[C@H]1CCCC[C@@H]1NC(=O)[C@H]1CCCC[C@@H]1NC(=O)C[C@H](C)NC(=O)[C@H]1CCCC[C@@H]1N` [H14 AM]: the Kd on CaM [1] came to 98 µM; on Gal-1 [2], 307 µM; on S100A4 it was 10 µM; on S100B [3], 256 µM; at S100B [4] it was 359 µM; at Gal-1 [5], 487 µM.
Take `NC(=O)C[C@@H](CC(=O)N[C@H]1CCCC[C@@H]1C(N)=O)NC(=O)[C@H]1CCCC[C@@H]1NC(=O)[C@H]1CCCC[C@@H]1NC(=O)C[C@H](Cc1ccc(O)cc1)NC(=O)[C@H]1CCCC[C@@H]1N` [H14 YN]: the Kd at CaM [1] came to 111 µM; on Gal-1 [2], 313 µM; on S100A4 it was 435 µM; at S100B [4], 476 µM; on Gal-1 [5], 271 µM.
In the case of `CC(C)[C@@H](CC(=O)N[C@H]1CCCC[C@@H]1C(=O)N[C@H]1CCCC[C@@H]1C(=O)N[C@@H](C)CC(=O)N[C@H]1CCCC[C@@H]1C(N)=O)NC(=O)[C@H]1CCCC[C@@H]1N` [H14 VA], the Kd is 38 µM on CaM [1]; 114 µM at Gal-1 [2]; 35 µM at S100A4; 299 µM on S100B [3]; 393 µM on S100B [4]; 375 µM at Gal-1 [5].
In the case of `CC(C)[C@@H](CC(=O)N[C@H]1CCCC[C@@H]1C(N)=O)NC(=O)[C@H]1CCCC[C@@H]1NC(=O)[C@H]1CCCC[C@@H]1NC(=O)C[C@H](C)NC(=O)[C@H]1CCCC[C@@H]1N` [H14 AV], the Kd at CaM [1] was determined as 42 µM; at Gal-1 [2] it was 100 µM; on S100A4 it was 6 µM; on S100B [3] it was 153 µM; on S100B [4] it was 316 µM; at Gal-1 [5] it was 201 µM.
As for `C[C@@H](CC(=O)N[C@H]1CCCC[C@@H]1C(=O)N[C@H]1CCCC[C@@H]1C(=O)N[C@H](CC(=O)N[C@H]1CCCC[C@@H]1C(N)=O)Cc1c[nH]c2ccccc12)NC(=O)[C@H]1CCCC[C@@H]1N` [H14 AW], the Kd on CaM [1] amounted to 2 µM; at Gal-1 [2], 203 µM; at S100A4, 42 µM; on S100B [3] it was 42 µM; on CaM [6], 297 µM; at S100B [4] it was 127 µM.
Turning to `NC(=O)C[C@@H](CC(=O)N[C@H]1CCCC[C@@H]1C(N)=O)NC(=O)[C@H]1CCCC[C@@H]1NC(=O)[C@H]1CCCC[C@@H]1NC(=O)C[C@H](CC(N)=O)NC(=O)[C@H]1CCCC[C@@H]1N` [H14 NN], the Kd on CaM [1] came out at 162 µM; at Gal-1 [2], 246 µM; on CaM [6], 290 µM; on S100B [4] it was 120 µM; on Gal-1 [5], 444 µM.
Regarding `CSCC[C@@H](CC(=O)N[C@H]1CCCC[C@@H]1C(=O)N[C@H]1CCCC[C@@H]1C(=O)N[C@@H](CCC(N)=O)CC(=O)N[C@H]1CCCC[C@@H]1C(N)=O)NC(=O)[C@H]1CCCC[C@@H]1N` [H14 MQ], the Kd on CaM [1] was 145 µM; on S100A4, 476 µM; at CaM [6], 489 µM; at S100B [4], 394 µM.
Taken in the same sequence, the figures for `CSCC[C@@H](CC(=O)N[C@H]1CCCC[C@@H]1C(=O)N[C@H]1CCCC[C@@H]1C(=O)N[C@@H](CO)CC(=O)N[C@H]1CCCC[C@@H]1C(N)=O)NC(=O)[C@H]1CCCC[C@@H]1N` [H14 MS] were 106 µM, 320 µM, 431 µM and 391 µM.
For `CSCC[C@@H](CC(=O)N[C@H]1CCCC[C@@H]1C(N)=O)NC(=O)[C@H]1CCCC[C@@H]1NC(=O)[C@H]1CCCC[C@@H]1NC(=O)C[C@H](CC(=O)O)NC(=O)[C@H]1CCCC[C@@H]1N` [H14 DM], the Kd at CaM [6] worked out at 322 µM; on S100B [4], 159 µM; on Gal-1 [5], 397 µM.
For the compound `CC[C@H](C)[C@@H](CC(=O)N[C@H]1CCCC[C@@H]1C(N)=O)NC(=O)[C@H]1CCCC[C@@H]1NC(=O)[C@H]1CCCC[C@@H]1NC(=O)C[C@H](C)NC(=O)[C@H]1CCCC[C@@H]1N` [H14 AI], the Kd was 13 µM at CaM [1]; 248 µM on Gal-1 [2]; 7 µM at S100A4; 108 µM at S100B [3]; 238 µM at S100B [4].
In the same order, the values of `CC(C)[C@@H](CC(=O)N[C@H]1CCCC[C@@H]1C(=O)N[C@H]1CCCC[C@@H]1C(=O)N[C@H](CC(=O)N[C@H]1CCCC[C@@H]1C(N)=O)[C@@H](C)O)NC(=O)[C@H]1CCCC[C@@H]1N` [H14 VT] are 142 µM, 347 µM, 79 µM, 382 µM and 484 µM.
With `CC[C@H](C)[C@@H](CC(=O)N[C@H]1CCCC[C@@H]1C(=O)N[C@H]1CCCC[C@@H]1C(=O)N[C@H](CC(=O)N[C@H]1CCCC[C@@H]1C(N)=O)[C@@H](C)O)NC(=O)[C@H]1CCCC[C@@H]1N` [H14 IT], the Kd on CaM [1] amounted to 51 µM; at Gal-1 [2] it was 185 µM; on S100A4, 19 µM; on S100B [3], 142 µM; at S100B [4] it was 373 µM; at Gal-1 [5], 333 µM.
With `CSCC[C@@H](CC(=O)N[C@H]1CCCC[C@@H]1C(=O)N[C@H]1CCCC[C@@H]1C(=O)N[C@@H](CC(N)=O)CC(=O)N[C@H]1CCCC[C@@H]1C(N)=O)NC(=O)[C@H]1CCCC[C@@H]1N` [H14 MN], the Kd on CaM [1] was 122 µM; at Gal-1 [2], 399 µM; at S100B [4], 449 µM; at Gal-1 [5] it was 495 µM.
Consider `CC(C)C[C@@H](CC(=O)N[C@H]1CCCC[C@@H]1C(=O)N[C@H]1CCCC[C@@H]1C(=O)N[C@@H](C)CC(=O)N[C@H]1CCCC[C@@H]1C(N)=O)NC(=O)[C@H]1CCCC[C@@H]1N` [H14 LA], for which the Kd at CaM [1] amounted to 8 µM; at Gal-1 [2], 160 µM; at S100A4, 34 µM; on S100B [3], 170 µM; on S100B [4], 294 µM; on Gal-1 [5], 425 µM.
For `CC(C)C[C@@H](CC(=O)N[C@H]1CCCC[C@@H]1C(=O)N[C@H]1CCCC[C@@H]1C(=O)N[C@@H](CO)CC(=O)N[C@H]1CCCC[C@@H]1C(N)=O)NC(=O)[C@H]1CCCC[C@@H]1N` [H14 LS], the Kd at CaM [1] was determined as 99 µM; on Gal-1 [2] it was 498 µM; on S100A4, 195 µM; at S100B [3], 379 µM; on S100B [4], 371 µM.
In the case of `NC(=O)CC[C@@H](CC(=O)N[C@H]1CCCC[C@@H]1C(N)=O)NC(=O)[C@H]1CCCC[C@@H]1NC(=O)[C@H]1CCCC[C@@H]1NC(=O)C[C@H](Cc1ccc(O)cc1)NC(=O)[C@H]1CCCC[C@@H]1N` [H14 YQ], the Kd at CaM [1] was 123 µM; on Gal-1 [2], 238 µM; on S100A4, 227 µM; on S100B [3] it was 480 µM; at S100B [4] it was 449 µM; on Gal-1 [5] it was 439 µM.
As for `CSCC[C@@H](CC(=O)N[C@H]1CCCC[C@@H]1C(=O)N[C@H]1CCCC[C@@H]1C(=O)N[C@H](CC(=O)N[C@H]1CCCC[C@@H]1C(N)=O)[C@@H](C)O)NC(=O)[C@H]1CCCC[C@@H]1N` [H14 MT], the Kd on CaM [1] turned out to be 63 µM; at Gal-1 [2], 424 µM; at S100A4 it was 148 µM; at S100B [3], 476 µM; at S100B [4], 337 µM.
On to `CC[C@H](C)[C@@H](CC(=O)N[C@H]1CCCC[C@@H]1C(=O)N[C@H]1CCCC[C@@H]1C(=O)N[C@@H](CO)CC(=O)N[C@H]1CCCC[C@@H]1C(N)=O)NC(=O)[C@H]1CCCC[C@@H]1N` [H14 IS], for which the Kd on CaM [1] is 142 µM; at Gal-1 [2] it was 266 µM; at S100A4, 79 µM; on S100B [3], 382 µM; on S100B [4] it was 456 µM.
In the same order, the values of `CC(C)C[C@@H](CC(=O)N[C@H]1CCCC[C@@H]1C(=O)N[C@H]1CCCC[C@@H]1C(=O)N[C@@H](CCCNC(=N)N)CC(=O)N[C@H]1CCCC[C@@H]1C(N)=O)NC(=O)[C@H]1CCCC[C@@H]1N` [H14 LR] are 14 µM, 116 µM, 138 µM, 82 µM and 167 µM.
On to `NC(=O)CC[C@@H](CC(=O)N[C@H]1CCCC[C@@H]1C(N)=O)NC(=O)[C@H]1CCCC[C@@H]1NC(=O)[C@H]1CCCC[C@@H]1NC(=O)C[C@H](CC(N)=O)NC(=O)[C@H]1CCCC[C@@H]1N` [H14 NQ], for which the Kd is 190 µM on CaM [1], 257 µM at Gal-1 [2], 222 µM on CaM [6] and 478 µM at S100B [4].
